Results: article PMC12175894 (Science Advances, 2025)
Numbering of substitutions follows the chain as printed. Where two headings read alike, the source gives them in different places.

How the values were obtained:
5-HT1AR wildtype = molecular target: T1, 5-HT1AR wildtype (Homo sapiens, UniProt P08908); experiment: GloSensor cAMP assay in HEK293A cells; assay type: cell-based
T1 construct: host or cells: HEK293T, HEK293A, HEK293AΔGs, HEK293AΔGi/o, HEK293AΔARRB1/B2
T1 sequence (P08908 1-422): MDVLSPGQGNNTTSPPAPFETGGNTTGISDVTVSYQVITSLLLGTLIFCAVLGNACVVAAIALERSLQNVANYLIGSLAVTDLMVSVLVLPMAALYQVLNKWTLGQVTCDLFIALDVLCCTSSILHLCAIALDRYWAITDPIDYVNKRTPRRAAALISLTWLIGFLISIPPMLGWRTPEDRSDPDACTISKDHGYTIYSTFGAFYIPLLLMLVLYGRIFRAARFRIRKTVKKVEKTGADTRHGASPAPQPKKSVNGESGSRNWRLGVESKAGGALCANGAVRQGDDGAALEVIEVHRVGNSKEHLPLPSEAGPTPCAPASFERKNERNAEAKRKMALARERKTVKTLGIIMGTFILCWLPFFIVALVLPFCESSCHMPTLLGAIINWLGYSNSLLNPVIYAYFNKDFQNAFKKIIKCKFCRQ

5-HT1AR F112^3.28W = molecular target: T2, 5-HT1AR F112^3.28W (Homo sapiens, UniProt P08908, F112W); experiment: GloSensor inhibition of cAMP accumulation in HEK293AΔGs; assay type: cell-based; settings: for Emax: read-out: Emax [% ± SEM], inhibition of cAMP accumulation
T2 sequence (P08908 1-422 F112W): T1 sequence (P08908 1-422) with F112W

[1] = molecular target: T3, 5-HT1AR F112^3.28W + M92^2.60F (Homo sapiens, UniProt P08908, F112W/M92F); experiment: as above; assay type: cell-based; settings: for Emax: read-out: Emax [% ± SEM], inhibition of cAMP accumulation
T3 sequence (P08908 1-422 M92F/F112W): T1 sequence (P08908 1-422) with M92F, F112W

5-HT1AR Q97^2.65A [2] = molecular target: T4, 5-HT1AR Q97^2.65A (Homo sapiens, UniProt P08908, Q97A); experiment: as above; assay type: cell-based; settings: for Emax: read-out: Emax [% ± SEM], inhibition of cAMP accumulation
T4 sequence (P08908 1-422 Q97A): T1 sequence (P08908 1-422) with Q97A

5-HT1AR Q97^2.65A [3] = molecular target: T4, 5-HT1AR Q97^2.65A; experiment: GloSensor cAMP accumulation in HEK293AΔGi/o; assay type: cell-based; settings: read-out: Emax [% ± SEM], cAMP accumulation
[4] = molecular target: T3, 5-HT1AR F112^3.28W + M92^2.60F; experiment: β-arrestin 2 recruitment, enhanced bystander BRET in HEK293T with GRK2; assay type: cell-based; settings: HEK-293T; read-out: Emax [% ± SEM], β-arrestin 2 recruitment
male C56BL/6 mice [5] = experiment: 50°C tail flick; assay type: in vivo, mouse; settings: 10 mg/kg i.p.
male C56BL/6 mice [6] = experiment: Hargreaves test; assay type: in vivo, mouse; settings: for response latency, Hargreaves: 10 mg/kg i.p.
male C56BL/6 mice [7] = experiment: 52°C hot plate; assay type: in vivo, mouse; settings: wild-type mice, 10 mg/kg
male C56BL/6 mice [8] = experiment: Accelerating rotarod; assay type: in vivo, mouse
male C56BL/6 mice [9] = experiment: CFA-induced inflammatory pain model; assay type: in vivo, mouse
male C56BL/6 mice [10] = experiment: SNI model of neuropathic pain; assay type: in vivo, mouse

| SMILES | Emax (5-HT1AR F112^3.28W) [%] | Emax [1] [%] | Emax (5-HT1AR Q97^2.65A [2]) [%] | Emax (5-HT1AR Q97^2.65A [3]) [%] | Emax [4] [%] | response latency, 50°C tail flick (male C56BL/6 mice [5]) | response latency, Hargreaves (male C56BL/6 mice [6]) | response latency, 52°C hot plate (male C56BL/6 mice [7]) | further results |
| --- | --- | --- | --- | --- | --- | --- | --- | --- | --- |
| COc1ccccc1OCCNCCCOc1ccc2c(c1)NC(=O)CO2 [ST171] | 69 ± 8 | 85 ± 11 | 79 ± 6 | < 5 | < 5 | antinociceptive | antinociceptive | antinociceptive | Emax (5-HT1AR wildtype; HEK293-A, read-out: Emax [%±SEM], inhibition of cAMP accumulation): 86 ± 5%; EC50 (5-HT1AR wildtype; HEK293A, GloSensor, wildtype; read-out: EC50 left [nM±SEM], inhibition of cAMP accumulation): 3.4 ± 0.8 nM; EC50 (5-HT1AR F112^3.28W; HEK293AΔGs, F112W, read-out: EC50 [nM ± SEM], inhibition of cAMP accumulation): 2.2 ± 0.3 nM; EC50 ([1]; HEK293AΔGs, F112W + M92F, read-out: EC50 [nM ± SEM], inhibition of cAMP accumulation): 1.8 ± 0.6 nM; EC50 (5-HT1AR Q97^2.65A [2]; HEK293AΔGs, Q97A, read-out: EC50 [nM ± SEM], inhibition of cAMP accumulation): 8 ± 0.9 nM; antinociception, Hargreaves, lower doses (male C56BL/6 mice [6]; 1 and 5 mg/kg): not as antinociceptive as the 10 mg/kg dose; sedative effects, accelerating rotarod (male C56BL/6 mice [8]; 10 mg/kg): did not differ from control mice injected with vehicle; sedative effects, accelerating rotarod (male C56BL/6 mice [8]; 15 mg/kg): presumptive sedative effect; mechanical thresholds of the injured hind paw, CFA model (male C56BL/6 mice [9]; 10 mg/kg intraperitoneal): significantly increased the mechanical thresholds; mechanical thresholds of the injured hind paw, SNI model (male C56BL/6 mice [10]; 10 mg/kg intraperitoneal): significantly increased the mechanical thresholds |
| Cc1ccc(CNCC2(F)CCN(C(=O)c3ccc(F)c(Cl)c3)CC2)nc1 [befiradol, reference compound] | 95 ± 5 | 99 ± 7 | 91 ± 7 | 60 ± 2 | 83 ± 4 | antinociceptive | antinociceptive | antinociceptive | Emax (5-HT1AR wildtype; HEK293-A; read-out: Emax [%±SEM], inhibition of cAMP accumulation): 93 ± 2%; Esat [%±SEM] (5-HT1AR wildtype; HEK293A, GloSensor, wildtype): 75 ± 3%; sedative effects, accelerating rotarod (male C56BL/6 mice [8]; all doses >1 mg/kg): significantly reduced the ability of the mouse to continue on the rotarod; mechanical sensitivity, CFA model (male C56BL/6 mice [9]; nonsedating dose 1 mg/kg): reduced the mechanical sensitivity; mechanical allodynia, neuropathic pain model (male C56BL/6 mice [10]; lower, nonsedating doses (1 mg/kg)): did not reverse the mechanical allodynia |
